In brackets after ≈: the same amount, converted by molar mass.

The subject of experiment [1] is Vero cells. In words: Mammalian cytotoxicity, MTT assay in Vero cells. Format: cell-based. The settings on record: 48 h; for IC50: Chlorocebus sabaeus. The protocol: Grade IV SF268 glioblastoma cells and Vero epithelial cells were obtained from ATCC and cultured in complete medium consisting of Roswell Park Memorial Institute medium (RPMI-1640) supplemented with 0.05% gentamicin (50 mg/mL) and 10% FBS (fetal bovine serum; Gibco, Invitrogen, Carlsbad, CA, USA). Cultures were maintained at 37 °C in a 5% CO2 atmosphere and split by trypsin treatment once per week to maintain confluence.
For the cytotoxicity assays, Vero cells were cultivated in 96-well plates at 37 °C under a 5% CO2 atmosphere using RPMI-1640 medium with 0.05% gentamicin (50 mg/mL) and 10% FBS (fetal bovine serum). Vero cells were allowed to adhere for 24 h before being incubated for 48 h with the samples. During the treatment, dimethyl sulfoxide (DMSO) was used as a negative control, curcumin (1) was used as a control, and samples were assayed at four different concentrations. After incubation, MTT (3-(4,5-di-methyl-thiazol-2-yl)-2,5-diphenyl-tetrazolium bromide) was added to each well, and the absorbance at 570 nm was determined 4 h later using a color plate reader. Cytotoxicity was evaluated colorimetrically by calculating the ability of the remaining living Vero cells to reduce the pale yellow MTT to the black–purple formazan product, as previously described. All bioassays were performed in duplicate, and the inhibitory concentration (IC50) values were determined using the Data Analysis complement Wizard of Excel 2000 (Microsoft, Seattle, WA, USA).
On the technique in general: Formazan colour is commonly taken as a measure of viable cells.

For experiment [2], the system named is SF268 glioblastoma cells. Kind of experiment: MTT cytotoxicity in the glioblastoma cell line SF268 (single-concentration screening and IC50). Format: cell-based, Human. The following applies: for IC50 / activity at 10 µg/mL: Homo sapiens; for IC50: SF-268; for activity at 10 µg/mL: SF-268, 48 h, read-out: Growth Screening (%RG); for activity at 10 µg/mL / Growth Screening (%RG): SF268, single concentration 10 µg/mL, 48 h, percentage of relative growth; for Selectivity Index (SI): Vero versus SF268. The protocol:
Cultures were maintained at 37 °C in a 5% CO2 atmosphere and split by trypsin treatment once per week to maintain confluence.
RPMI without cells was used as a color control, and doxorubicin was used as an inhibition control. After treatment, MTT was added to each well, and the absorbance at 570 nm was determined 4 h later using a color plate reader. All bioassays were performed in duplicate, and the IC50 values were determined by the Data Analysis complement Wizard of Excel 2000 (Microsoft, Seattle, WA, USA).

The subject of experiment [3] is SF268 cell microtubules. Kind of experiment: Immunofluorescence staining of microtubules in SF268 cells. The following applies: SF268, 10 µg/mL, 24 h / 12 h, versus DMSO control. The format is cell-based, Human.
Protocol: SF268 cells were seeded onto 96-well plates and allowed to adhere overnight in complete growth medium (RPMI-1640).
After treatment, the cells were rinsed two times with PBS, fixed in 4% paraformaldehyde (15 min), and permeabilized with 0.5% Triton X-100 (Sigma Aldrich, St. Louis, MO, USA) (5 min). Nonspecific binding was blocked with 5% bovine serum albumin (BSA) in phosphate-buffered saline (PBS) for 1 h. […] Nuclei were counterstained with Hoechst 33342 (15 min), washed 2 times with PBS, and left in PBS at 4 °C in the dark.
Fluorescence images were acquired with an Olympus IX70 microscope (Olympus, Tokyo, Japan) using a 60× objective with identical exposure settings for all conditions. Microtubule density and organization were acquired and analyzed using β-tubulin signals in HCImage Hamamatsu (version 4.8) and ImageJ (version 1.54).
SF268 cells were exposed to media containing either DMSO as a control or curcumin derivatives at 10 μg/mL for 24 h, after which the microtubules were visualized with an α tubulin antibody (yellow), and the cell nuclei were stained with Hoechst (blue).
The cells were then stained with a β-tubulin antibody (yellow) and Hoechst dye (blue) to visualize the nucleus.
Experiment [4] deals with mitochondrial membrane potential of SF268 cancer cells. In words: Mitochondrial membrane potential measurement with DiOC6. Format: cell-based, Human. The settings on record: 10 µg/mL, 6 h, versus DMSO control. The protocol:
Changes in membrane potential were measured by staining cultured cells with the mitochondrial selective dye 3,3′-dihexyloxacarbocyanine (DiOC6) at 10 nM (Thermo Fisher, Waltham, MA, USA). The samples were incubated at 10 μg/mL for 6 h at 37 °C and then stained for 20 min with DiOC6 in the dark. Following incubation, the cells were washed, and the green fluorescence intensity of the DiOC6-stained cells was analyzed with a fluorometer immediately after staining. Incubation for 1 h with the mitochondrial membrane disruptor CCCP, carbonyl cyanide m-chlorophenylhydrazone (50 μM final concentration), was used as a positive control.
Changes in the mitochondrial membrane potential, a common hallmark of programmed cell death, were analyzed in samples with promising activities toward CNS cell line growth. We examined the effects of these compounds on the mitochondrial membrane potential using the dye DiOC6, a fluorophore that accumulates rapidly and selectively inside mitochondria depending on the membrane potential.
Figure 6 Changes in mitochondrial membrane potential caused by the compounds. Fluorometry was used to measure the mitochondrial effects of compounds that inhibited cell growth in culture. A membrane disruptor (CCCP) was added as a positive control, and untreated cultures (DMSO) were used as a negative control. […]

For experiment [5], the target named is T1, Porcine tubulin (Sus scrofa, UniProt P02550+P02554).
T1 construct: purchased Cytoskeleton Inc., Denver, CO, USA BK011P; host or cells: porcine neural tissue (tissue-purified; that it is brain is my own knowledge of the kit)
Kind of experiment: In vitro tubulin polymerization assay (cell-free kit). The format is biochemical. The settings on record: 10 µg/mL, 1 h at 37 °C, versus DMSO control. Here is the method:
A Tubulin Polymerization Assay Kit (Porcine tubulin and Fluorescence-based; Cat. # BK011P) (Cytoskeleton Inc., Denver, CO, USA) was used. Neural tubulin (>99% pure cytoskeleton) and tubulin polymerization buffer were mixed with 10 µg/mL curcumin derivatives or the vehicle DMSO at 37 °C in a preheated 96-well plate. The measurement of […] was immediately initiated using a Bio-Tek Synergy HT plate reader (one reading per minute for 1 h, according to the kit instructions). The rate of tubulin polymerization (milli-OD340 units per min) was then calculated for each sample from the linear portion of the kinetics curve, and group mean rates were analyzed for statistical significance.
We used a fluorescence cell-free-based assay to analyze the ability of curcumin to inhibit tubulin polymerization into microtubules in vitro. […]
Figure 5 (A) Tubulin polymerization of compounds 1, 2, 3, 4, 6, and 11. Tubulin polymerization was monitored by the increase in fluorescence at 360 nm (excitation) and 420 nm (emission) for 1 h at 37 °C. […]
The tubulin polymerization activities were determined by measuring fluorescence and recording the area under the curve (AUC). Increasing fluorescence indicates increasing polymerization activity, whereas decreasing fluorescence indicates greater depolymerization activity.

T1 sequence (P02550 whole entry): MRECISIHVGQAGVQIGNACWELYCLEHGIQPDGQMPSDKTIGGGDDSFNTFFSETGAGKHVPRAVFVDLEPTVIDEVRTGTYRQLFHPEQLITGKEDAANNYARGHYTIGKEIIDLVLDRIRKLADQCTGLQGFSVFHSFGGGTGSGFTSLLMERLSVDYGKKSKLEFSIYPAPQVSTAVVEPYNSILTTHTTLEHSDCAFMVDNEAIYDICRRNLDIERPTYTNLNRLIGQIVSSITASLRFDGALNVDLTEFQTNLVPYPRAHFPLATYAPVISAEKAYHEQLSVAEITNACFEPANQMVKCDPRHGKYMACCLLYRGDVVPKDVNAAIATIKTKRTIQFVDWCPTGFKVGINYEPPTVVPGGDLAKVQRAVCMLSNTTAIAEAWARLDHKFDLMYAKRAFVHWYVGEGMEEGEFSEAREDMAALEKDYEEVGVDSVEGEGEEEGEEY
T1 sequence (P02554 whole entry): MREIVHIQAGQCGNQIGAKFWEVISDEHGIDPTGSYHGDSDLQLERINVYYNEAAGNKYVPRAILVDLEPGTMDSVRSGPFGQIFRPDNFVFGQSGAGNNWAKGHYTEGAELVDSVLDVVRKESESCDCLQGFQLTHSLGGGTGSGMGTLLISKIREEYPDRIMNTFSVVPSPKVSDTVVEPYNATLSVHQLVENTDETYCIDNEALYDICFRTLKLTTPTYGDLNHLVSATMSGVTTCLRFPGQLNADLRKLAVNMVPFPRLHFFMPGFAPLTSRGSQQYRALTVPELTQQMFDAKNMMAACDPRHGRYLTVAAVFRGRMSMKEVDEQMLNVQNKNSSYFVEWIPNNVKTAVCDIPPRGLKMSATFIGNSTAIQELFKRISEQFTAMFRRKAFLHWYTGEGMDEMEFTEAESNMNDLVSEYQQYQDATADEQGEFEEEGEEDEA

“1,7-bis(4-hydroxy-3-methoxyphenyl)hepta-1,6-diene-3,5-dione [Compound 1, reference compound]”: the “IC50 VERO” value in experiment [1] is 15.9 µg/mL. For the same compound, the “IC50 SF268” value in experiment [2] (SF268, 48 h, MTT) came out at 6.3 µg/mL.
What is called IC50 is the concentration at which inhibition is half-maximal. Regarding `COc1cc(/C=C/C(O)=C/C(=O)/C=C/c2ccc(OCc3ccccc3)c(OC)c2)ccc1O` [Compound 2], the IC50 was 11.9 µg/mL (≈ 26 µM) in experiment [1] and 3.97 µg/mL (≈ 8.65 µM) in experiment [2] (SF268, 48 h, MTT). The “microtubule density and organization” value in experiment [3] was “significant reduction in microtubule density”.
Take `COc1cc(/C=C/C(O)=C/C(=O)/C=C/c2ccc(OC(C)=O)c(OC)c2)ccc1O` [Compound 3]: the “mitochondrial membrane potential (DiOC6 fluorescence intensity)” value in experiment [4] is “lowest fluorescence intensity”. Moreover, the IC50 came out at 13.2 µg/mL (≈ 32.2 µM) in experiment [1] and 0.88 µg/mL (≈ 2.14 µM) in experiment [2] (SF268, 48 h, MTT). The activity at 10 µg/mL in experiment [2] (MTT) was at most 40%.
In the case of `COc1cc(/C=C/C(=O)/C=C(O)/C=C/c2ccc(OC(C)=O)c(OC)c2)ccc1OC(C)=O` [Compound 4, (1E,3Z,6E)-3-hydroxy-5-oxohepta-1,3,6-triene-1,7-diyl)bis(2-methoxy-4,1-phenylene) diacetate], the IC50 came out at 42.1 µg/mL in experiment [1] and 2.45 µg/mL in experiment [2] (SF268, 48 h, MTT). Also, in experiment [2] (MTT), the activity at 10 µg/mL is at most 40%. The “Selectivity Index (SI)” value in experiment [2] turned out to be 17.16.
Regarding `COC(=O)CCC(=O)Oc1ccc(/C=C/C(=O)/C=C(O)/C=C/c2ccc(O)c(OC)c2)cc1OC` [Compound 6], the IC50 amounted to 12.9 µg/mL (≈ 26.7 µM) in experiment [1] and 0.833 µg/mL (≈ 1.73 µM) in experiment [2] (SF268, 48 h, MTT). Further, the “microtubule density and organization” value in experiment [3] is “significant reduction in microtubule density”. The activity at 10 µg/mL in experiment [2] (MTT) was at most 40%. Also, the “Selectivity Index (SI)” value in experiment [2] is reported as 15.45.
On to `COc1cc(/C=C/C(O)=C/C(=O)/C=C/c2ccc(OC(=O)CCC(=O)O[C@@H]3C[C@H](C)CC[C@H]3C(C)C)c(OC)c2)ccc1O` [Compound 7], for which the activity at 10 µg/mL in experiment [2] (MTT) turned out to be 50.9%.
In the case of `COc1cc(C=CC(=O)C=C(O)C=Cc2ccc(OC(=O)CCC(=O)OC3CC(C)CCC3C(C)C)c(OC)c2)ccc1OC(=O)CCC(=O)OC1CC(C)CCC1C(C)C` (stereo not shown) [Compound 8], the activity at 10 µg/mL in experiment [2] (MTT) came out at 55.2%.
On to `COc1cc(/C=C/C(O)=C/C(=O)/C=C/c2ccc(OC(=O)CCC(=O)OC3C4CC5CC(C4)CC3C5)c(OC)c2)ccc1O` (stereo not shown) [Compound 9], for which the activity at 10 µg/mL in experiment [2] (MTT) was determined as 45.6%.
On the same count and under the same terms, the result for `COc1cc(/C=C/C(=O)/C=C(O)/C=C/c2ccc(OC(=O)CCC(=O)OC3C4CC5CC(C4)CC3C5)c(OC)c2)ccc1OC(=O)CCC(=O)OC1C2CC3CC(C2)CC1C3` (stereo not shown) [Compound 10] reads 52%; that for `C=CCOC(=O)CCC(=O)Oc1ccc(/C=C/C(=O)/C=C(O)/C=C/c2ccc(OC(=O)CCC(=O)OCC=C)c(OC)c2)cc1OC` [Compound 12, Diallyl O,O′-(((1E,3Z,6E)-3-hydroxy-5-oxohepta-1,3,6-triene-1,7-diyl)bis(2-methoxy-4,1-phenylene)) disuccinate], 49.2%; that for `COc1cc(/C=C/C(=O)/C=C(O)/C=C/c2ccc(OC(=O)CCC(=O)OCc3ccccc3)c(OC)c2)ccc1OC(=O)CCC(=O)OCc1ccccc1` [Compound 14, Dibenzyl O,O′-(((1E,3Z,6E)-3-hydroxy-5-oxohepta-1,3,6-triene-1,7-diyl)bis(2-methoxy-4,1-phenylene)) disuccinate], 85.1%.
For the compound `COc1cc(/C=C/C(O)=C/C(=O)/C=C/c2ccc(OC(=O)CCC(=O)OC(c3ccccc3)C3CCCCC3)c(OC)c2)ccc1O` (stereo not shown) [Compound 15], the activity at 10 µg/mL in experiment [2] (MTT) is 47.9%.
Still for that read-out and setting: with `COc1cc(/C=C/C(=O)/C=C(O)/C=C/c2ccc(OC(=O)CCC(=O)OC(c3ccccc3)C3CCCCC3)c(OC)c2)ccc1OC(=O)CCC(=O)OC(c1ccccc1)C1CCCCC1` (stereo not shown) [Compound 16] the figure was 57.2%.
Same read-out and setting: the result for `COc1cc(/C=C/C(O)=C/C(=O)/C=C/c2ccc(OC(=O)CCC(=O)OC3CCCc4ccccc43)c(OC)c2)ccc1O` (stereo not shown) [Compound 17] reads 46.8%; that for `COc1cc(/C=C/C(=O)/C=C(O)/C=C/c2ccc(OC(=O)CCC(=O)OC3Cc4ccccc4C3)c(OC)c2)ccc1OC(=O)CCC(=O)OC1Cc2ccccc2C1` [Compound 18], 62.9%.
Take `COc1cc(/C=C/C(O)=C/C(=O)/C=C/c2ccc(OC(=O)CCC(=O)OC3c4ccccc4-c4ccccc43)c(OC)c2)ccc1O` [Compound 19]: the concentration for half-maximal inhibition (IC50) turned out to be 15.2 µg/mL (≈ 24 µM) in experiment [1] and 1.11 µg/mL (≈ 1.75 µM) in experiment [2] (SF268, 48 h, MTT). Further, in experiment [2] (MTT), the activity at 10 µg/mL is at most 40%. The “Selectivity Index (SI)” value in experiment [2] was 13.71.
In the case of `COc1cc(/C=C/C(=O)/C=C(O)/C=C/c2ccc(OC(=O)CCC(=O)OC3c4ccccc4-c4ccccc43)c(OC)c2)ccc1OC(=O)CCC(=O)OC1c2ccccc2-c2ccccc21` [Compound 20], the activity at 10 µg/mL in experiment [2] (MTT) worked out at 63%.
On to `COc1cc(/C=C/C(O)=C/C(=O)/C=C/c2ccc(OC(=O)CCC(=O)OC(c3ccccc3)c3ccccc3)c(OC)c2)ccc1O` [Compound 21], for which the IC50 in experiment [1] was found to be 46 µg/mL (≈ 72.5 µM); in experiment [2] (SF268, 48 h, MTT) it was 36.4 µg/mL (≈ 57.4 µM). Further, the activity at 10 µg/mL in experiment [2] (MTT) was at most 40%. Moreover, in experiment [2], the “Selectivity Index (SI)” value is reported as 1.26.
For `COc1cc(/C=C/C(O)=C/C(=O)/C=C/c2ccc(OC(=O)CCC(=O)OCc3ccc4c(c3)C(=O)c3ccccc3C4=O)c(OC)c2)ccc1O` [Compound 22], the IC50 in experiment [1] came to 72.8 µg/mL (≈ 106 µM); in experiment [2] (SF268, 48 h, MTT) it was 58.9 µg/mL (≈ 85.5 µM). The activity at 10 µg/mL in experiment [2] (MTT) is at most 40%. Further, the “Selectivity Index (SI)” value in experiment [2] is on record as 1.19.
As for `CC(=O)O[C@H]1C(=O)[C@@]2(C)[C@H]([C@H](OC(=O)c3ccccc3)[C@]3(O)C[C@H](OC(=O)[C@H](O)[C@@H](NC(=O)c4ccccc4)c4ccccc4)C(C)=C1C3(C)C)[C@]1(OC(C)=O)CO[C@@H]1C[C@@H]2O` [Paclitaxel], the “tubulin polymerization (fluorescence, AUC)” value in experiment [5] was “caused an increase in the AUC”.
As to `[Ca+2].[Cl-].[Cl-]` [calcium chloride], in experiment [5], the “tubulin polymerization (fluorescence, AUC)” value was “significant decrease in the AUC”.
Consider “Benzyl (4-((1E,3Z,6E)-3-hydroxy-7-(4-hydroxy-3-methoxyphenyl)-5-oxohepta-1,3,6-trien-1-yl)-2-methoxyphenyl) succinate [Compound 13]”, for which, in experiment [2] (MTT), the “Growth Screening (%RG)” value came out at 49.88%.
For “Cyclopentyl (4-((1E,3Z,6E)-3-hydroxy-7-(4-hydroxy-3-methoxyphenyl)-5-oxohepta-1,3,6-trien-1-yl)-2-methoxyphenyl) succinate [Compound 5]”, the “IC50 VERO” value in experiment [1] was 12.6 µg/mL. In experiment [2] (MTT), the “Growth Screening (%RG)” value was found to be 50.81%.
